Laboratory results reported in paper PMC11470957, “Principles of paralog-specific targeted protein degradation engaging the C-degron E3 KLHDC2” (Nature Communications, 2024).
Several values for one entry are separate records, joined by “and”; a condition that tells them apart may be missing. Identical values can stand only once.

Tests used:
KLHDC2^SBD [1] = target: T1, KLHDC2^SBD (Homo sapiens, UniProt Q9Y2U9); test: ITC, binary binding of small molecule to KLHDC2^SBD
T1 sequence (Q9Y2U9 15-361): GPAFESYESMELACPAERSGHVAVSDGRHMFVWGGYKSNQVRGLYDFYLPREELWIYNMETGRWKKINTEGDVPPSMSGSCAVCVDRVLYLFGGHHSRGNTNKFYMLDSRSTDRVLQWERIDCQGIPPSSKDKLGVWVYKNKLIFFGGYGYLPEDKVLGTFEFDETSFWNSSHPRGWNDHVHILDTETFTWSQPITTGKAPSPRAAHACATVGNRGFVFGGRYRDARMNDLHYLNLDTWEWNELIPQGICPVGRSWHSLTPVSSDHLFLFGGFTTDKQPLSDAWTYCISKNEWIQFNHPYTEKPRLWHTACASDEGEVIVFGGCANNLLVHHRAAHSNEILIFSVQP

KLHDC2^SBD [2] = target: T1, KLHDC2^SBD; test: TR-FRET assay, competition with di-Gly degron peptide binding to KLHDC2^SBD; design: KLHDC2^SBD (15-361) and its Avi-tagged counterpart were expressed in E. coli Rosetta2 cells; 6XHis-MBP (N, cleaved yes); made in house; host or cells: E. coli Rosetta2
Procedure: TR-FRET assays were carried out in black 384-well microtiter plates at a final volume of 20 μL per well. An assay cocktail was prepared as a mixture of 50 nM Biotin-KLHDC2 SBD, 20 nM AlexaFluor488-RIC8B peptide, 2.5 nM Tb-Streptavidin (ThermoFisher) in assay buffer (25 mM HEPES, 100 mM NaCl, 0.1% Triton X-100, 0.5 mM DTT, pH 7.5). The assay cocktail was incubated for thirty-minutes at room temperature and 20 μl distributed to assay plates. Molecules were distributed to the plates at the indicated concentration and the assay mixture was incubated for 1 h at room temperature prior to measuring the TR-FRET signal with a PHERAstar FS plate reader (BMG Labtech) equipped with modules for excitation at 337 nm and emissions at 490 and 520 nm. The integration start was set to 100 µs and the integration time to 200 µs. The number of flashes was fixed at 100. The ratio of 520/490 was used as TR-FRET signal in calculations. Assay endpoints were normalized to 100% (buffer only) and used for curve fitting in Prism.

KLHDC2^SBD [3] = target: T1, KLHDC2^SBD; test: Surface plasmon resonance binding to KLHDC2; design: KLHDC2^SBD (15-361) and its Avi-tagged counterpart were expressed in E. coli Rosetta2 cells; 6XHis-MBP (N, cleaved yes); made in house; host or cells: E. coli Rosetta2
Procedure: Surface plasmon resonance (SPR) was utilized to determine kinetic parameters and binding affinity of KLHDC2 substrates using a PioneerFE (Sartorius). Experiments were carried out in 20 mM Tris, 200 mM NaCl, 1 mM TCEP, 0.01% Brij35, and 1% DMSO at pH 7.4 as a running buffer with a 100 µL/min flow rate at 20 °C.
The 10xHis-KLHDC2 was immobilized onto a Ni-NTA-coated biosensor chip (HisCap). The chip surface was conditioned using 10 mM HCl, 50 mM NaOH, and 0.1% SDS (50 µL at 100 µL/min) twice, followed by a 100 mM Tris buffer wash (100 µL at 100 µL/min). The surface was then activated using an injection of 0.5 M EDTA (125 µL at 25 µL/min) followed by an injection of 5 mM NiCl2 (125 µL at 25 µL/min). […] Channel 2 was treated identically to channel 3 except for protein loading to be used as a reference channel. […] 100% of the loop was injected with a 300 s dissociation time. All samples were run in triplicate. Data was analyzed using Qdat software and fit to a simple 1-site model.
The SPR experiments were performed to determine the binding affinities (KD) of KLHDC2-SJ46411 and KLHDC2-SJ46418 complexes. All the experiments were performed using a Biacore 1S+ instrument. […] The running buffer consisted of 20 mM Tris pH 7.5, 200 mM NaCl, 1 mM TCEP, 0.01% Brij35, and 4% DMSO. […] In brief, before the immobilization, the sensor chip surface was conditioned by injecting a mixture of (3:1 v/v) 8 M guanidine hydrochloride and 1 M NaOH at a flow rate of 5 μL/min for 2 min for two times. Then, running buffer was injected at a 30 μl/min flow rate for 1 min 3 times. Next, the Biotin CAPture reagent was injected at a flow rate of 2 μl/min for 5 min. Then, biotinylated KLHDC2 was only injected onto the active channel (channel 2).
Sample preparation was carried out precisely the same as SJ46411. All experiments were performed using a multi-cycle analysis method with a 30 μl/min flow rate, 120 S association, and 240 s dissociation time. All data were reference subtracted and corrected for DMSO mismatch. The sensorgrams were analyzed using Biacore insight evaluation software, and KD was determined using the 1:1 steady-state affinity fitting. Finally, all the analyzed data was replotted using GraphPad Prizm 10 software.

[4] = cell: ligand, syringe: KLHDC2^SBD

Kd (KLHDC2^SBD [1]; ITC Kd, as printed in Fig 2d/3b): 210 nM
Kd (KLHDC2^SBD [1]; ITC Kd, cell: ligand, syringe: KLHDC2^SBD): 216 ± 17 nM
Kd (KLHDC2^SBD [1]; Kd, ITC, syringe KLHDC2, cell compound, Rep1, Rep2): 205 nM and 229 nM
ITC -TΔS (KLHDC2^SBD [1]; [4]): -0.94 +/- 0.02 kcal/mol-1
ITC stoichiometry of binding N (KLHDC2^SBD [1]; [4]): 0.9
ITC ΔG (KLHDC2^SBD [1]; [4]): -8.82 +/- 0.04 kcal/mol-1
ITC ΔH (KLHDC2^SBD [1]; [4]): -7.88 +/- 0.07 kcal/mol-1
% Inhibition, normalized TR-FRET dose response (KLHDC2^SBD [2]; Log Concentration 2.39794): 13.1742% and 22.1732% and 17.7572%
% Inhibition, normalized TR-FRET dose response (KLHDC2^SBD [2]; Log Concentration 2.64098): 24.253% and 29.1375% and 24.8323%
% Inhibition, normalized TR-FRET dose response (KLHDC2^SBD [2]; Log Concentration 3.273): 57.5653% and 59.1955% and 57.0453%
% Inhibition, normalized TR-FRET dose response (KLHDC2^SBD [2]; Log Concentration 3.87506): 85.4899% and 86.6902% and 84.0459%
% Inhibition, normalized TR-FRET dose response (KLHDC2^SBD [2]; Log Concentration 4.39794): 85.0979% and 85.1063% and 81.8885%
IC50 (KLHDC2^SBD [2]; inhibition of KLHDC2^SBD binding to a di-Gly degron peptide, read-out: TR-FRET IC50): 1100 nM
Raw SPR response (KLHDC2^SBD [3]; 0.0976562 uM, time -29 s): 0.0989
Raw SPR response (KLHDC2^SBD [3]; 0.0976562 uM, time -29.1 s): 0.1275
Raw SPR response (KLHDC2^SBD [3]; 0.0976562 uM, time -29.2 s): 0.1501
Raw SPR response (KLHDC2^SBD [3]; 0.0976562 uM, time -29.3 s): 0.2497
Raw SPR response (KLHDC2^SBD [3]; 0.195312 uM, time -29 s): 0.0952
Raw SPR response (KLHDC2^SBD [3]; 0.195312 uM, time -29.1 s): 0.1196
Raw SPR response (KLHDC2^SBD [3]; 0.195312 uM, time -29.2 s): 0.1572
Raw SPR response (KLHDC2^SBD [3]; 0.195312 uM, time -29.3 s): 0.2514
Raw SPR response (KLHDC2^SBD [3]; 0.390625 uM, time -29 s): 0.1406
Raw SPR response (KLHDC2^SBD [3]; 0.390625 uM, time -29.1 s): 0.1812
Raw SPR response (KLHDC2^SBD [3]; 0.390625 uM, time -29.2 s): 0.2616
Raw SPR response (KLHDC2^SBD [3]; 0.390625 uM, time -29.3 s): 0.3693
Raw SPR response (KLHDC2^SBD [3]; 0.78125 uM, time -29 s): 0.1584
Raw SPR response (KLHDC2^SBD [3]; 0.78125 uM, time -29.1 s): 0.1946
Raw SPR response (KLHDC2^SBD [3]; 0.78125 uM, time -29.2 s): 0.2669
Raw SPR response (KLHDC2^SBD [3]; 0.78125 uM, time -29.3 s): 0.3893
Raw SPR response (KLHDC2^SBD [3]; 1.5625 uM, time -29 s): 0.1505
Raw SPR response (KLHDC2^SBD [3]; 1.5625 uM, time -29.1 s): 0.1878
Raw SPR response (KLHDC2^SBD [3]; 1.5625 uM, time -29.2 s): 0.2713
Raw SPR response (KLHDC2^SBD [3]; 1.5625 uM, time -29.3 s): 0.3827
Raw SPR response (KLHDC2^SBD [3]; 2.34375 uM, time -29 s): 0.1726
Raw SPR response (KLHDC2^SBD [3]; 2.34375 uM, time -29.1 s): 0.2365
Raw SPR response (KLHDC2^SBD [3]; 2.34375 uM, time -29.2 s): 0.3258
Raw SPR response (KLHDC2^SBD [3]; 2.34375 uM, time -29.3 s): 0.5246
Raw SPR response (KLHDC2^SBD [3]; 3.125 uM, time -29 s): 0.1584
Raw SPR response (KLHDC2^SBD [3]; 3.125 uM, time -29.1 s): 0.2098
Raw SPR response (KLHDC2^SBD [3]; 3.125 uM, time -29.2 s): 0.2855
Raw SPR response (KLHDC2^SBD [3]; 3.125 uM, time -29.3 s): 0.3398
Raw SPR response (KLHDC2^SBD [3]; 4.6875 uM, time -29 s): 0.1506
Raw SPR response (KLHDC2^SBD [3]; 4.6875 uM, time -29.1 s): 0.2195
Raw SPR response (KLHDC2^SBD [3]; 4.6875 uM, time -29.2 s): 0.3095
Raw SPR response (KLHDC2^SBD [3]; 4.6875 uM, time -29.3 s): 0.4038
Raw SPR response (KLHDC2^SBD [3]; 12.5 uM, time -29 s): 0.1017
Raw SPR response (KLHDC2^SBD [3]; 12.5 uM, time -29.1 s): 0.1107
Structure (SMILES): COCCOc1cccc2ccc(-c3nc(CC(=O)NCC(=O)O)cs3)cc12 [SJ46418]
